# Results taken from US10351586B2, “Cytidine derivative dimers and applications thereof” (CHANGZHOU FANGYUAN PHARMACEUTICAL CO., LTD, priority 2014, dated 2019).
# Marks after values point to notes of the source that are not given here.
# What was measured:
# [1] = Body weight / toxicity of a single intraperitoneal injection in HCT-116 colon tumor-bearing nude mice; conditions: for Average rate of weight change of the animals / Average weight of the animals: single IP injection (QD×1), D1 and D2 400 mg/kg, D3 350 mg/kg, D4 300 mg/kg; for Average weight of the animals: Mean±SEM
# Method: Corresponding test substance was weighed and put into a 5 mL glass tube. The test substance was dissolved in ethanol under the stirring by a 5 mm magnetic stirrer. After a complete dissolution, Cremophor EL was added with continuous stirring. Immediately prior to the user of the test substance, the labeled amount of physiological saline was added and stirred.
# Animal experiments were performed. The animals were female Balb/c nude mice at specific pathogen free (SPF) level and were supplied from Shanghai Sippr/BK Lab Animal Ltd. (Shanghai, China). […] These animals were at the age of about 7 weeks to about 9 weeks at the beginning of the experiments and had the weight of about 18 grams to about 22 grams at the beginning of the experiment. The animals had acclimatization duration of about 5 days to about 7 days. Animals were numbered using their tail number. The animal room was maintained at about 23±2° C., 40%-70% humidity, with alternating light and dark every 12 hours.
# 4.2 Animal inoculation and grouping were performed. Under aseptic conditions, each nude mice was injected with 0.1 mL cell suspension into the right hind leg subcutaneously (3×10^6 cell/mouse). When the size of the tumor grew to have a volume of about 60-150 mm^3, nude mice with a similar tumor size and a desirable shape (e.g., with substantially same shape such as a substantially spherical shape, without having irregular shapes or multiple tumors grouped together) were selected and grouped. In the experiment, there were six mice in each group.
# The mice in control group were injected with a mixed solution including ethanol, Cremophor EL and normal saline at a ratio of 5:5:90.
# 4.4 Clinical symptoms were provided. All clinical symptoms of each animal were recorded at the beginning of the experiments and during the experiments. The observation was performed at the same time every day.
# After administration of the test substance, when the weight reduction was >20%, when the animal was dying, or when the tumor volume exceeds about 2800 mm^3, the animal were euthanized by applying CO2. The tumor was separated and weighed, an autopsy was performed, and visual inspection was conducted and recorded on whether there were pathological changes in the organs.
# [2] = system: HCT-116 human colon cancer xenografts; experiment: Tumor growth inhibition of HCT-116 human colon cancer xenografts in nude mice; assay type: in vivo, Balb/c nude mice; conditions: for Relative tumor proliferation rate (T/C %) / Relative tumor volume (RTV) / Tumor growth inhibition rate (TGI %) / Tumor volume of HCT-116 human colon cancer xenografts: single IP injection (QD×1), D1 and D2 400 mg/kg, D3 350 mg/kg, D4 300 mg/kg; for Tumor volume of HCT-116 human colon cancer xenografts: Mean±SEM
# Method: 2. Preparation of the test substance was performed by dissolving the test substance using the following solvents:
# 3. Animal experiments were performed. […] Animals were numbered using their tail number.
# 4.1 Tumor cells were human HCT-116 colon cancer cells purchased from the Institute of Cell Biology, Chinese Academy of Sciences (Beijing, China). F-12 medium (containing 10% FBS) was used to culture cells in a carbon dioxide incubator at about 37° C., saturated humidity, under 5% CO2 and 95% air. Before inoculation, cells in logarithmic growth phase were collected. After digested by 0.25% trypsin, the cells were washed with PBS once. The cells were resuspended with serum-free medium and counted. Serum-free medium were used for cell resuspension, until the cell concentration was adjusted to about 3×10^7 cell/mL.
# 4.2 Animal inoculation and grouping were performed.
# The diameters (D) of the tumor nodules were measured three times a week with a circle sizer ruler. In addition, the following formula was applied to calculate the volume of the tumor nodules (V): V=[…](D/2)^3 generally for a spherical shape. Evaluation indexes of antitumor activity were tumor growth inhibition rate TGI (%) and relative tumor proliferation rate T/C (%).
# The calculation formula of TGI was: TGI (%)=(Vcontrol−VTreatment)/Vcontrol)×100%. The relative tumor volume (RTV) was calculated by: RTV=Vt/V0, where V0 is the tumor volume at the time of group administration, and Vt is the tumor volume at the time of measurement.
# The mice were weighed 3 times every week.
# 4.5 Data and statistical analysis were provided.
# [3] = D1 400 mg/kg Day 7, D2 400 mg/kg Day 9, D3 350 mg/kg Day 11, D4 300 mg/kg Day 11, single IP
structure (smiles),measurement,setting,value
"CCCCOC(=O)Nc1ccn(C2OC(COC(=O)CCCC(=O)OC[C@H]3O[C@@H](n4ccc(NC(=O)OCCCC)nc4=O)C(F)(F)[C@@H]3OC(=O)OCCCC)C(OC(=O)OCCCC)C2(F)F)c(=O)n1 (stereo in doubt) [Compound D1, 1,5-di-[4-N-(n-butyloxycarbonyl)-3′-O-(n-butoxycarbonyl)-2′-deoxy-2′,2′-difluoro-cytidine]glutarate]",Body weight after drug administration (in words),"[1]; D1 400 mg/kg, single IP, Day 4",significantly decreased
same,Average rate of weight change of the animals,[1]; Day 0,0.00%
same,Average weight of the animals,[1]; Day 0,19.98 ± 0.49 g
same,Average rate of weight change of the animals,[1]; Day 1,−2.55 ± 0.77%
same,Average weight of the animals,[1]; Day 1,19.48 ± 0.58 g
same,Average rate of weight change of the animals,[1]; Day 2,−12.18 ± 2.63 %
same,Average weight of the animals,[1]; Day 2,17.45 ± 0.81 g
same,Average rate of weight change of the animals,[1]; Day 4,−18.58 ± 4.66 %
same,Average weight of the animals,[1]; Day 4,16.15 ± 1.08 g
same,Average rate of weight change of the animals,[1]; Day 7,−4.23 ± 3.77%
same,Average weight of the animals,[1]; Day 7,19.80 ± 1.40 g
same,Average rate of weight change of the animals,[1]; Day 9,0.42 ± 1.92%
same,Average weight of the animals,[1]; Day 9,20.75 ± 1.05 g
same,Average rate of weight change of the animals,[1]; Day 11,2.77 ± 4.27%
same,Average weight of the animals,[1]; Day 11,21.25 ± 1.55 g
same,Average rate of weight change of the animals,[1]; Day 14,3.29 ± 3.29%
same,Average weight of the animals,[1]; Day 14,21.35 ± 1.35 g
same,Average rate of weight change of the animals,[1]; Day 16,5.24 ± 2.74%
same,Average weight of the animals,[1]; Day 16,21.75 ± 1.25 g
same,Average rate of weight change of the animals,[1]; Day 18,12.70 ± 4.20 %
same,Average weight of the animals,[1]; Day 18,23.30 ± 1.60 g
same,Average rate of weight change of the animals,[1]; Day 21,7.90 ± 2.90 %
same,Average weight of the animals,[1]; Day 21,22.30 ± 1.30 g
same,Average rate of weight change of the animals,[1]; Day 23,9.32 ± 3.82 %
same,Average weight of the animals,[1]; Day 23,22.60 ± 1.50 g
same,Average rate of weight change of the animals,[1]; Day 25,12.20 ± 4.70%
same,Average weight of the animals,[1]; Day 25,23.20 ± 1.70 g
same,Average rate of weight change of the animals,[1]; Day 28,15.14 ± 3.64%
same,Average weight of the animals,[1]; Day 28,23.80 ± 1.50 g
same,Average rate of weight change of the animals,[1]; Day 30,14.22 ± 2.22%
same,Average weight of the animals,[1]; Day 30,23.60 ± 1.20 g
same,"Relative tumor proliferation rate, minimum",[2]; [3],28.36%
same,"Tumor inhibition rate, maximum",[2]; [3],91.49%
same,Relative tumor proliferation rate (T/C %),[2]; Day 0,0.00%
same,Relative tumor volume (RTV),[2]; Day 0,1.00
same,Tumor growth inhibition rate (TGI %),[2]; Day 0,0.00%
same,Tumor volume of HCT-116 human colon cancer xenografts,[2]; Day 0,39.36 ± 6.16** mm^3
same,Relative tumor proliferation rate (T/C %),[2]; Day 1,80.13%
same,Relative tumor volume (RTV),[2]; Day 1,1.35 ± 0.24
same,Tumor growth inhibition rate (TGI %),[2]; Day 1,67.76%
same,Tumor volume of HCT-116 human colon cancer xenografts,[2]; Day 1,58.20 ± 17.45** mm^3
same,Relative tumor proliferation rate (T/C %),[2]; Day 2,65.15%
same,Relative tumor volume (RTV),[2]; Day 2,1.35 ± 0.24
same,Tumor growth inhibition rate (TGI %),[2]; Day 2,73.77%
same,Tumor volume of HCT-116 human colon cancer xenografts,[2]; Day 2,58.20 ± 17.45** mm^3
same,Relative tumor proliferation rate (T/C %),[2]; Day 4,32.20%
same,Relative tumor volume (RTV),[2]; Day 4,0.89 ± 0.12
same,Tumor growth inhibition rate (TGI %),[2]; Day 4,87.46%
same,Tumor volume of HCT-116 human colon cancer xenografts,[2]; Day 4,37.24 ± 9.27** mm^3
same,Relative tumor proliferation rate (T/C %),[2]; Day 7,28.36%
same,Relative tumor volume (RTV),[2]; Day 7,1.16 ± 0.79
same,Tumor growth inhibition rate (TGI %),[2]; Day 7,91.49%
same,Tumor volume of HCT-116 human colon cancer xenografts,[2]; Day 7,36.82 ± 28.63** mm^3
same,Relative tumor proliferation rate (T/C %),[2]; Day 9,28.77%
same,Relative tumor volume (RTV),[2]; Day 9,1.61 ± 0.98
same,Tumor growth inhibition rate (TGI %),[2]; Day 9,91.42%
same,Tumor volume of HCT-116 human colon cancer xenografts,[2]; Day 9,50.63 ± 36.49** mm^3
same,Relative tumor proliferation rate (T/C %),[2]; Day 11,34.47%
same,Relative tumor volume (RTV),[2]; Day 11,3.18 ± 2.18
same,Tumor growth inhibition rate (TGI %),[2]; Day 11,89.65%
same,Tumor volume of HCT-116 human colon cancer xenografts,[2]; Day 11,101.02 ± 78.57** mm^3
same,Relative tumor proliferation rate (T/C %),[2]; Day 14,64.15%
same,Relative tumor volume (RTV),[2]; Day 14,8.88 ± 6.75
same,Tumor growth inhibition rate (TGI %),[2]; Day 14,80.16%
same,Tumor volume of HCT-116 human colon cancer xenografts,[2]; Day 14,285.66 ± 237.94* mm^3
same,Relative tumor proliferation rate (T/C %),[2]; Day 16,89.47%
same,Relative tumor volume (RTV),[2]; Day 16,15.44 ± 11.56
same,Tumor growth inhibition rate (TGI %),[2]; Day 16,72.62%
same,Tumor volume of HCT-116 human colon cancer xenografts,[2]; Day 16,495.95 ± 408.8** mm^3
same,Relative tumor proliferation rate (T/C %),[2]; Day 18,106.69%
same,Relative tumor volume (RTV),[2]; Day 18,20.37 ± 13.96
same,Tumor growth inhibition rate (TGI %),[2]; Day 18,67.62%
same,Tumor volume of HCT-116 human colon cancer xenografts,[2]; Day 18,647.07 ± 503.28** mm^3
same,Relative tumor proliferation rate (T/C %),[2]; Day 21,138.14%
same,Relative tumor volume (RTV),[2]; Day 21,32.34 ± 20.40
same,Tumor growth inhibition rate (TGI %),[2]; Day 21,58.38%
same,Tumor volume of HCT-116 human colon cancer xenografts,[2]; Day 21,1017.61 ± 749.53 mm^3
same,Relative tumor proliferation rate (T/C %),[2]; Day 23,163.55%
same,Relative tumor volume (RTV),[2]; Day 23,32.34 ± 20.40
same,Tumor growth inhibition rate (TGI %),[2]; Day 23,56.91%
same,Tumor volume of HCT-116 human colon cancer xenografts,[2]; Day 23,1017.61 ± 749.53 mm^3
same,Relative tumor proliferation rate (T/C %),[2]; Day 25,155.09%
same,Relative tumor volume (RTV),[2]; Day 25,33.53 ± 19.21
same,Tumor growth inhibition rate (TGI %),[2]; Day 25,59.56%
same,Tumor volume of HCT-116 human colon cancer xenografts,[2]; Day 25,1044.35 ± 722.80 mm^3
same,Relative tumor proliferation rate (T/C %),[2]; Day 28,198.76%
same,Relative tumor volume (RTV),[2]; Day 28,42 ± 22
same,Tumor growth inhibition rate (TGI %),[2]; Day 28,51.78%
same,Tumor volume of HCT-116 human colon cancer xenografts,[2]; Day 28,1296.79 ± 847.87 mm^3
same,Relative tumor proliferation rate (T/C %),[2]; Day 30,209.10%
same,Relative tumor volume (RTV),[2]; Day 30,51.88 ± 24.88
same,Tumor growth inhibition rate (TGI %),[2]; Day 30,43.36%
same,Tumor volume of HCT-116 human colon cancer xenografts,[2]; Day 30,1589.29 ± 983.15 mm^3
